Patent US20070292876A1, “METHODS FOR IDENTIFICATION OF COMPOUNDS THAT MIMIC THE SENESCENCE-INDUCING ACTIVITY OF RETINOIC ACID RECEPTOR LIGANDS” (Ordway Research Institute, Inc., priority 2006, published 2007)
Entries after “also recorded” stand apart in the source; their conditions may differ. Blank lines part the entries; values can stand above or below the molecule they belong to.

Legend:
Type in all cases: cell-based, human
MCF-7 cells [1] = assay: Effect on MCF-7 cell growth (cell number after 7 days exposure); settings: LGD1550 100 nM, LG100815 10 μM, LGD1268 100 nM, LG101208 10 μM
Procedure: The bars represent cell number after 7 days of culture with the addition of DMSO (control), 100 nM RA, 100 nM RAR agonist LGD1550, 100 nM RXR agonist LGD1268, 10 μM RAR antagonist LG100815, and 10 μM RXR antagonist LG101208. Experiments were done in triplicate, and the results are expressed relative to the average of the control.
(§1) MCF-7 cells were plated at 5×10^5 per P100, and exposed on the next day to DMSO carrier, RA (100 nM), pan-RAR-specific ligands, LGD1550 (100 nM) and LG100815 (10 μM), pan-RXR specific agonist LGD1268, pan-RXR-specific antagonist LG101208, or drug-free DMSO carrier (control). The latter four compounds were provided by Ligand Pharmaceuticals, Inc. The effects of RAR ligands on the growth of MCF-7 cells were determined, as measured by the cell number after 7 days exposure to the compounds (FIG. 1) and on the fraction of cells expressing the senescence-associated β-galactosidase activity (SA-β-gal), a marker of senescence, after 7-day treatment with the compounds (FIG. 2).

MCF-7 cells [2] = assay: Senescence-associated β-galactosidase (SA-β-gal) positive fraction of MCF-7 cells; settings: 7-day treatment; same concentrations as for cell growth
Procedure: The bars represent percentages of SA-P-gal+cells after 8 days of treatment with the indicated compounds (in triplicate). The compounds were used at the same concentrations as in FIG. 1.
as §1

MCF-7 cells [3] = assay: Affymetrix U133 Plus 2.0 microarray gene expression profiling: genes (oncogenes) inhibited by RAR ligands; settings: 24, 48 or 72 hr treatment
Description: (§2) FIG. 3 depicts microarray analysis of changes in gene expression in MCF-7 cells treated with RAR ligands LGD1550 or LG100815, plotted using GeneSpring software. The X axis represents different time points of treatment with RAR ligands (0 point correspond to cells cultured for 3 days with DMSO carrier). […] The groups of genes shown in panels (a) and (b) represent gene ontology (GO) categories, with the exclusion of genes showing raw signal intensity <10 in MCF-7 cells. The groups of genes shown in panels (c) and (d) represent the oncogenes and tumor suppressors listed in Table 1 and Table 2, respectively.
(§3) For the analysis of gene expression, cells treated with the carrier or with RAR ligands LGD1550 or LG100815 were collected after 24, 48 or 72 hr treatment. Total cellular RNA was isolated using Qiagen's RNeasy kit. For gene expression profiling, RNA samples were provided to the Microarray Core Facility at the Genomics Institute of the NYSDOH Wadsworth Center, which carried out biotinylated target preparation (using 2 μg RNA per assay) and hybridization with Affymetrix U133 Plus 2.0 microarrays. Data analysis was carried out using GeneSpring software (Agilent). Gene function analysis was carried out using Pathway Assist (Ariadne Genomics) and PubMed.
Gene Ontology groupings of genes with related biological functions (as provided in the GeneSpring software package) were surveyed for concerted response to RAR ligands. […] Strong downregulation of such genes has been associated with cell cycle arrest induced by chemotherapeutic drugs (Chang et al., 2002). In contrast, inhibition of these genes by RAR ligands was moderate (on average about 2-fold), with almost no genes showing 5-fold or stronger inhibition. On the other hand, we noticed that many of the genes that show the greatest fold inhibition by RAR ligands are known or putative oncogenes. Genes are defined herein as putative oncogenes or tumor suppressors if such genes have been reported in the literature to play a functional role in tumor cell growth, survival, tumorigenesis or metastasis, as determined by targeted inhibition, gene overexpression or protein addition studies.

MCF-7 cells [4] = assay: Affymetrix U133 Plus 2.0 microarray gene expression profiling: tumor suppressors induced by RAR ligands; settings: 24, 48 or 72 hr treatment
Description: as §2, §3
As previously described (Dokmanovic et al., 2002), retinoid treatment of MCF-7 cells induces genes that encode growth-inhibitory proteins, both intracellular (EPLIN and UBD) and secreted (IGFBP3 and TGFBI). Through the survey of the present microarray data, additional retinoid-inducible growth-inhibitory genes, induced both by LGD1550 and LG100815, have been identified. These genes, listed in Table 2, provide advantageous reporters for identifying compounds that mimic the senescence-inducing effects of retinoids. The products of these genes include both secreted factors and cell-associated proteins.

MDA-MB-231 cells = assay: Coculture of GFP-expressing MDA-MB-231 cells with RA-treated MCF-7 cells, MDA-MB-231 cell number by FACS
Procedure: Each bar represents MDA-MB-231 cell number after five days of culture relative to cell number in the absence of MCF-7 or RA. Mean and standard deviation were calculated from three independent experiments. • (b) MDA-MB-231 cells (GFP-expressing) were plated as 1:1 mixtures with MCF-7 cells that were either untreated or treated for eight days with 100 nM, and grown in the presence of DMSO carrier or 100 nM RA. Each bar represents MDA-MB-231 cell relative to MDA-MB-231 cell number in coculture with untreated MCF-7 without RA. Mean and standard deviation were calculated from three independent experiments.
Since retinoid-treated MCF-7 cells upregulate genes for secreted factors with different activities, a functional test was carried out to determine whether retinoid-treated MCF-7 cells express primarily pro-mitogenic or anti-mitogenic activity. In this assay, MCF-7 cells were mixed (1:1) with MDA-MB-231 breast carcinoma cells (insensitive to retinoids), which were transduced with Green Fluorescent Protein (GFP), providing the ability to distinguish and quantitate these cells by FACS analysis. The co-cultures were treated for five days with 100 nM RA. […] In contrast, retinoid treatment in coculture with MCF-7 decreased the number of MDA-MB-231 cells by about 25% (FIG. 4a). In another type of experiment, shown in FIG. 4b, MCF-7 cells were pre-treated for 8 days with RA, to allow for complete growth arrest and development of the senescent phenotype. The treated MCF-7 cells were collected by trypsinization and cocultured for three days with MDA-MB-231, in the presence or in the absence of RA. Coculture with RA-pretreated MCF-7 cells was sufficient to inhibit MDA-MB-231 cell growth by about 30%, as compared to coculture with untreated MCF-7 cells (FIG. 4B, left bar).

Compound: Cc1cc2c(cc1C1(c3ccc(C(=O)O)cn3)CC1)C(C)(C)CCC2(C)C [LGD1268]
- MCF-7 cell growth (cell number) (MCF-7 cells [1]): did not inhibit cell growth; also recorded: modest but reproducible increase in cell growth
- fraction of cells expressing SA-β-gal (senescent phenotype) (MCF-7 cells [2]): did not induce the senescent phenotype

- Max fold induction of NBL1 (MCF-7 cells [4]; probe 37005_at): 4.0 fold
- Max fold induction of GSN (MCF-7 cells [4]; probe 200696_s_at): 1.7 fold
- Max fold induction of BTG1 (MCF-7 cells [4]; probe 200921_s_at): 2.5 fold
- Max fold induction of PRSS11 (MCF-7 cells [4]; probe 201185_at, secreted): 1.9 fold
- Max fold induction of BTG2 (MCF-7 cells [4]; probe 201236_s_at): 8.3 fold
- Max fold induction of TGFBI (MCF-7 cells [4]; probe 201506_at, secreted): 53.0 fold
- Max fold induction of MARCKS (MCF-7 cells [4]; probe 201669_s_at): 9.3 fold
- Max fold induction of PRSS8 (MCF-7 cells [4]; probe 202525_at, secreted): 2.4 fold
- Max fold induction of IRF1 (MCF-7 cells [4]; probe 202531_at): 5.3 fold
- Max fold induction of FBLN5 (MCF-7 cells [4]; probe 203088_at, secreted): 10.1 fold
- Max fold induction of IGFBP6 (MCF-7 cells [4]; probe 203851_at, secreted): 2.6 fold
- Max fold induction of GADD45G (MCF-7 cells [4]; probe 204121_at): 3.8 fold
- Max fold induction of UBD (MCF-7 cells [4]; probe 205890_s_at): 35.9 fold
- Max fold induction of BATF (MCF-7 cells [4]; probe 205965_at): 2.7 fold
- Max fold induction of CEACAM1 (MCF-7 cells [4]; probe 206576_s_at): 16.2 fold
- Max fold induction of PPARG (MCF-7 cells [4]; probe 208510_s_at): 15.9 fold
- Max fold induction of KLF6 (MCF-7 cells [4]; probe 208961_s_at): 2.2 fold
- Max fold induction of DDIT3 (MCF-7 cells [4]; probe 209383_at): 2.5 fold
- Max fold induction of NKX3-1 (MCF-7 cells [4]; probe 209706_at): 7.5 fold
- Max fold induction of IGFBP3 (MCF-7 cells [4]; probe 210095_s_at, secreted): 32.2 fold
- Max fold induction of SULF1 (MCF-7 cells [4]; probe 212354_at, secreted): 2.9 fold
- Max fold induction of PDCD4 (MCF-7 cells [4]; probe 212593_s_at): 1.7 fold
- Max fold induction of EI24 (MCF-7 cells [4]; probe 216396_s_at): 2.2 fold
- Max fold induction of EPLIN (MCF-7 cells [4]; probe 217892_s_at): 18.8 fold
- Max fold induction of PHLDA1 (MCF-7 cells [4]; probe 217996_at): 3.7 fold
- Max fold induction of GDF15 (MCF-7 cells [4]; probe 221577_x_at, secreted): 7.2 fold
- Max fold induction of FOXO3A (MCF-7 cells [4]; probe 224891_at): 2.3 fold
- Max fold induction of HIPK2 (MCF-7 cells [4]; probe 225368_at): 3.7 fold
- Max fold induction of TGFB2 (MCF-7 cells [4]; probe 228121_at, secreted): 2.0 fold
- Max fold induction of CDKN2B (MCF-7 cells [4]; probe 236313_at): 3.2 fold
- Max fold induction of VHL (MCF-7 cells [4]; probe 1559227_s_at): 2.0 fold
Compound: CC(/C=C/C=C(\C)c1cc(C(C)(C)C)cc(C(C)(C)C)c1)=C\C(=O)O [LGD1550]
- Max fold inhibition of G6PD (MCF-7 cells [3]; probe 202275_at): 2.2 fold
- Max fold inhibition of CCNA2 (MCF-7 cells [3]; probe 203418_at): 3.3 fold
- Max fold inhibition of PTTG1 (MCF-7 cells [3]; probe 203554_x_at): 2.7 fold
- Max fold inhibition of PBX3 (MCF-7 cells [3]; probe 204082_at): 3.4 fold
- Max fold inhibition of FGFR3 (MCF-7 cells [3]; probe 204379_s_at): 5.0 fold
- Max fold inhibition of TFF3 (MCF-7 cells [3]; probe 204623_at, secreted): 4.0 fold
- Max fold inhibition of IRS1 (MCF-7 cells [3]; probe 204686_at): 2.6 fold
- Max fold inhibition of MYB (MCF-7 cells [3]; probe 204798_at): 9.9 fold
- Max fold inhibition of C4.4A (MCF-7 cells [3]; probe 204952_at): 8.1 fold
- Max fold inhibition of ENTPD5 (MCF-7 cells [3]; probe 205757_at): 3.4 fold
- Max fold inhibition of GREB1 (MCF-7 cells [3]; probe 205862_at): 4.8 fold
- Max fold inhibition of HMMR (MCF-7 cells [3]; probe 207165_at): 2.9 fold
- Max fold inhibition of CCND1 (MCF-7 cells [3]; probe 208711_s_at): 2.1 fold
- Max fold inhibition of BMP7 (MCF-7 cells [3]; probe 209591_s_at, secreted): 1.8 fold
- Max fold inhibition of CXCL12 (MCF-7 cells [3]; probe 209687_at, secreted): 5.7 fold
- Max fold inhibition of MSX2 (MCF-7 cells [3]; probe 210319_x_at): 4.0 fold
- Max fold inhibition of RET (MCF-7 cells [3]; probe 211421_s_at): 8.5 fold
- Max fold inhibition of PIK3R1 (MCF-7 cells [3]; probe 212240_s_at): 2.0 fold
- Max fold inhibition of MYBL1 (MCF-7 cells [3]; probe 213906_at): 2.6 fold
- Max fold inhibition of MAFB (MCF-7 cells [3]; probe 218559_s_at): 7.5 fold
- Max fold inhibition of VAV3 (MCF-7 cells [3]; probe 218807_at): 14.5 fold
- Max fold inhibition of PDLIM2 (MCF-7 cells [3]; probe 219165_at): 4.0 fold
- Max fold inhibition of ECT2 (MCF-7 cells [3]; probe 219787_s_at): 2.8 fold
- Max fold inhibition of SPDEF (MCF-7 cells [3]; probe 220192_x_at): 14.2 fold
- Max fold inhibition of AMIGO2 (MCF-7 cells [3]; probe 222108_at): 11.7 fold
- Max fold inhibition of MALAT1 (MCF-7 cells [3]; probe 224559_at): 2.5 fold
- MCF-7 cell growth (cell number) (MCF-7 cells [1]): inhibited the cell growth
- fraction of cells expressing SA-β-gal (senescent phenotype) (MCF-7 cells [2]): induced SA-β-gal to an extent similar to that of RA

Compound: CC1=C(/C=C/C(C)=C/C=C/C(C)=C/C(=O)O)C(C)(C)CCC1 [RA, all-trans retinoic acid]
- growth of MDA-MB-231 cells (MDA-MB-231 cells; 100 nM RA alone, without MCF-7 cells, five days): no effect
- decrease of the number of MDA-MB-231 cells (MDA-MB-231 cells; 100 nM RA in 1:1 coculture with MCF-7, five days): about 25%
- inhibition of MDA-MB-231 cell growth (MDA-MB-231 cells; coculture for three days with MCF-7 pre-treated 8 days with RA, vs coculture with untreated MCF-7): about 30%
- effect of addition of RA to the coculture on MDA-MB-231 growth inhibition (MDA-MB-231 cells; coculture with RA-pretreated MCF-7, 100 nM RA present, three days): no significant effect
